Assay results taken from patent US9751825B2, “TAK1 kinase inhibitors, compositions, and used related thereto” (Emory University, priority 2011, dated 2017).
Entries after “also recorded” stand apart in the source; their conditions may differ. Like-named read-outs stand apart in the source and are kept apart here.

Experiments:
[1] = tested on: prostate cancer cells (PC3) and breast cancer MDA-MB-231 cells; assay: Tumor cell growth with kinase inhibitors, with or without TNFα (FIG. 2); format: cell-based; details: 48 hrs; for tumor cell growth: 5 μM U0126, 10 μM 1478, 5 μM 5Z-7-oxozeanol, 5 μM HDAB001, 5 μM SB431542; for repression of tumor cell growth together with TNFα: TNFα (10 ng/ml)
Source text: The response of prostate cancer cells (PC3, FIG. 2) and breast cancer MDA-MB-231 cells to HDAB001 was compared with responses to known kinase inhibitors, including 5Z-7-oxozeanol, a selective inhibitor of TAK1; U0126, a selective MEK inhibitor; AG1478, a selective EGFR inhibitor; SB431542, TGFBR1 inhibitor.

phosphorylation of ERK = assay: Phosphorylation of ERK in non-tumor MCF10A cells with EGF-mediated signaling; format: cell-based, human; details: 10 μM HDAB001, 10 μM AG1478
Procedure: (§1) MEK inhibitor U0126 inhibits phosphorylation of ERK and EGFR inhibitor blocks EGFR-mediated phospho-ERK in MCF10A.
(§2) The selectivity of the HDAB001 and HDAB006 compounds was tested in several cell-based assays examining the kinase activity of RAF, MEK, EGFR and TGFBR1. Several known inhibitors of the above kinases were used for control. Two luciferase reporters NF-KB-Luc and SBE-Luc were transfected in MDA-MB-231 cells to assess the effect of compounds on NF-KB and TGF-beta receptor-Smad signaling events. […] See Safina et al., TAK1 is required for TGF-[beta]1-mediated regulation of matrix metalloproteinase-9 and metastasis. Oncogene, 2008, 27, 1198-1207. […] The kinase activities of TGF-beta receptors type I and type II are required for phosphorylation of Smad2.

[2] = Stability of the isolated product at room temperature; format: physicochemical
[3] = tested on: Non-tumor MCF10A (ER-, PR-) cells; assay: Cytotoxicity in non-tumor MCF10A cells; format: cell-based, human
Procedure: (§3) The assay consists of treatment of cells with the synthetic compounds (a range of concentrations) and subsequent quantification of the cells by staining with methylene blue and measuring optical density of the resulting colored solution. The measured optical densities are normalized to a vehicle-control and the normalized values are used to determine IC50 values for a given compound using SigmaPlot software, Systat Software, Inc., San Jose, Calif. Cells were seeded in 96-well plate at 2-5,000 cells/well in 100 μl. Next day cells were treated with HDAB compounds. Stocks of compounds (10 mM) were prepared by dissolving in DMSO. Consecutive dilutions ranging 10 nM-100 μM concentrations were prepared as 2× solutions in media, and 100 μl solutions were added to cells for treatment. DMSO was used as a vehicle control. Cells were incubated with compounds for 48 hours at 37° C. in a CO2-incubator. For cell staining, media was removed and cells were fixed and stained with 0.5% Methylene blue in water/methanol (50:50) solution for 1 hour at room temperature (RT). After extensive rinsing in ddH2O the plates were dried over-night. Cells were solubilized in 100 μl/well of 1% SDS in PBS for 10 minutes at RT, the absorbance at 650 nm (methylene-blue absorbance) and 540 nm (background) was read with a SpectraMax fluorimeter and the difference Abs650-Abs540 was calculated. […]

[4] = tested on: breast, prostate and lung carcinoma and non-tumor cell lines; format: cell-based
Procedure: (§4) The assay consists of treatment of cells with the synthetic compounds (a range of concentrations) and subsequent quantification of the cells by staining with methylene blue and measuring optical density of the resulting colored solution. The measured optical densities are normalized to a vehicle-control and the normalized values are used to determine IC50 values for a given compound using SigmaPlot software, Systat Software, Inc., San Jose, Calif. Cells were seeded in 96-well plate at 2-5,000 cells/well in 100 μl. Next day cells were treated with HDAB compounds. Stocks of compounds (10 mM) were prepared by dissolving in DMSO. Consecutive dilutions ranging 10 nM-100 μM concentrations were prepared as 2× solutions in media, and 100 μl solutions were added to cells for treatment. DMSO was used as a vehicle control. Cells were incubated with compounds for 48 hours at 37° C. in a CO2-incubator. For cell staining, media was removed and cells were fixed and stained with 0.5% Methylene blue in water/methanol (50:50) solution for 1 hour at room temperature (RT). After extensive rinsing in ddH2O the plates were dried over-night. Cells were solubilized in 100 μl/well of 1% SDS in PBS for 10 minutes at RT, the absorbance at 650 nm (methylene-blue absorbance) and 540 nm (background) was read with a SpectraMax fluorimeter and the difference Abs650-Abs540 was calculated.
Assays were carried out with a panel of breast, prostate and lung carcinoma and non-tumor cell lines with HDAB-001. […] The selectivity trend for HDAB001 was further validated in a set of prostate carcinoma and non-tumor epithelial cell lines.

[5] = tested on: breast carcinoma MDA-MB-231 cells; assay: Cytotoxicity assay (methylene blue staining), MDA-MB-231 cells; format: cell-based
Procedure: as §4

[6] = tested on: phosphorylation of ERK1/2; assay: Phosphorylation of ERK1/2 in MDA-MB-231 cells; format: cell-based; details: 2 ng/ml TGFβ1 for 2 hours, 10 μM HDAB001, 5 μM U0126
Procedure: as §1, §2

LNCaP-C4-2 = assay: Cytotoxicity of HDAB001 in prostate carcinoma cell lines, LNCaP-C4-2; format: cell-based; details: LNCaP-C4-2, AR pos, ind, metastatic
Procedure: as §3

LNCaP = assay: Cytotoxicity of HDAB001 in prostate carcinoma cell lines, LNCaP; format: cell-based; details: AR pos, tumor
Procedure: as §3

ER-positive cell lines = assay: Cytotoxicity in ER-positive breast carcinoma cell lines; format: cell-based; details: three ER-positive cell lines
Procedure: as §3

RWPE-2 = assay: Cytotoxicity of HDAB001 in prostate carcinoma cell lines, RWPE-2; format: cell-based; details: RWPE-2, AR pos, tumor, metastatic
Procedure: as §3

[7] = tested on: Non-tumor MCF12A (ER+) cells; assay: Cytotoxicity in non-tumor MCF12A cells; format: cell-based, human
Procedure: as §3

ER/HER2-positive lines = assay: Cytotoxicity in ER/HER2-positive breast carcinoma lines; format: cell-based; details: two ER/HER2-positive lines
Procedure: as §3

SBE-Luc = SBE-Luc luciferase reporter (TGF-beta receptor-Smad signaling) in MDA-MB-231 cells; format: cell-based
Procedure: FIG. 3A-B show data on the luciferase activity of NFkB-Luc and SBE-Luc reporters in MDA-MB-231 control, dnTAK1 or cells treated with HDAB001 and HDAB006, P-values by the ANOVA test.
as §2

RWPE-1 = assay: Cytotoxicity of HDAB001 in prostate cell lines, RWPE-1 (non-tumor); format: cell-based; details: RWPE-1, AR pos
Procedure: as §3

PC3 = assay: Cytotoxicity of HDAB001 in prostate carcinoma cell lines, PC3; format: cell-based; details: PC3, AR neg, metastatic
Procedure: as §3

phosphorylation of Smad2 = assay: Phosphorylation of Smad2 in TGFβ1-treated cells; format: cell-based; details: 2 ng/ml TGFβ1 for 2 hours; HDAB001 10 μM
Procedure: as §1, §2

[8] = tested on: mouse carcinoma cell line 4T1; assay: Cytotoxicity in mouse carcinoma cell line 4T1; format: cell-based; details: 4T1 (from BALB/c mice)
Procedure: as §3

[9] = triple-negative MDA-MB-231 cells

For `COc1cc(O)c2c(c1)/C=C/C[C@H](O)[C@H](O)C(=O)/C=C\C[C@H](C)OC2=O` [5Z-7-oxozeanol], the tumor cell growth [1] was “markedly inhibited” and the “repression of tumor cell growth together with TNFα” value [1] was “cooperated with TNFα”.
In the case of `COc1cc2ncnc(Nc3cccc(Cl)c3)c2cc1OC` [AG1478], the “phosphorylation of ERK in the presence of EGF-mediated signaling” value (phosphorylation of ERK) is reported as “blocked” and the tumor cell growth [1] is reported as “resistant”.
For `COC(=O)/C=C\C=C(\C(=O)N(C)OC)c1ccc(Cl)c(Cl)c1` [Compound 1-63h, (2Z,4E)-methyl 5-(3,4-dichlorophenyl)-6-(methoxy(methyl)amino)-6-oxohexa-2,4-dienoate], the stability after isolation [2] was “decomposed at room temperature”.
For `O=c1[nH]cc(F)c(=O)[nH]1` [Compound 5FU, 5-FluororoUricil, reference compound], the IC50 [3] was 1800 nM, the “more toxic to non-tumor MCF10A than to breast cancer MDA-MB-231 cells” value [4] was 3-10 fold and the IC50 [5, 9] was 5700 nM.
In the case of `N#CC(=C(/N)Sc1ccccc1N)/C(C#N)=C(\N)Sc1ccccc1N` [Compound U0126], the “phosphorylation of ERK1/2” value [6] is reported as “inhibits; also recorded: effectively blocked” and the tumor cell growth [1] is reported as “less sensitive”.
With `COc1cccc2c1C(=O)c1c(O)c3c(c(O)c1C2=O)C[C@@](O)(C(=O)CO)C[C@@H]3O[C@H]1C[C@H](N)[C@H](O)[C@H](C)O1` [Doxorubicin, reference compound] the “more toxic to non-tumor MCF10A than to breast cancer MDA-MB-231 cells” value ([4]; human, 48 h) was 3-10 fold.
Work on `COC(=O)/C=C\C=C(\C(=O)OC)c1ccc(Cl)c(Cl)c1` [HDAB001] yielded an IC50 (LNCaP-C4-2) of 500 nM, an IC50 (LNCaP) of 2100 nM and an IC50 (ER-positive cell lines) of 300 to 750 nM. For the same compound, the “phosphorylation of ERK in the presence of EGF-mediated signaling” value (phosphorylation of ERK) was “did not affect”, the IC50 (RWPE-2) was 2400 nM and the “phosphorylation of ERK1/2” value [6] was “did not affect”. The tumor cell growth [1] was “markedly inhibited”, the “repression of tumor cell growth together with TNFα” value [1] was “cooperated with TNFα” and the IC50 [7] was over 100000 nM. The IC50 (ER/HER2-positive lines) was 1000 to 1500 nM, the TGF-beta reporter activity (SBE-Luc) was “did not affect” and the IC50 [3] was 48000 nM. For the same compound, the IC50 (RWPE-1) was 40100 nM, the IC50 (PC3) was 2300 nM and the “IC50 in non-tumor MCF10A and MCF12A cells relative to tumor cells” value ([4]; non-tumor vs tumor cells) was about 20 fold. The “selectivity for tumor cells compared to non-tumor cells” value ([4]; tumor vs non-tumor cells) was “at least twenty-fold”, the IC50 ([5]; MDA-MB-231 cells, 48 hours incubation, methylene blue staining) was 4620 nM and the IC50 [5, 9] was 3700 nM. The “phosphorylation of Smad2” value (phosphorylation of Smad2) was “did not affect” and the IC50 [8] was 530 nM.
`COC(=O)/C=C\C=C(\C(=O)OC)c1ccc(Br)c(Br)c1` [HDAB022, (2E,4Z)-dimethyl 2-(3,4-dibromophenyl)hexa-2,4-dienedioate] showed an IC50 ([5]; Homo sapiens, MDA-MB-231 cells, 48 hours incubation, methylene blue staining) of 2160 nM.
With `NC(=O)c1ccc(-c2nc(-c3ccc4c(c3)OCO4)c(-c3ccccn3)[nH]2)cc1` [SB431542, reference compound] the tumor cell growth [1] was “resistant” and the “phosphorylation of Smad2” value (phosphorylation of Smad2) was “blocked”.
